Results on 3 molecules are retold here after BindingDB's records for doi:10.1016/j.bmc.2008.04.010 (Astellas Pharma, 2008).

Molecules are shown by their SMILES.

The assay deals with T1, Glycogen phosphorylase, liver form (Homo sapiens, UniProt P06737).
T1 sequence (P06737 whole entry): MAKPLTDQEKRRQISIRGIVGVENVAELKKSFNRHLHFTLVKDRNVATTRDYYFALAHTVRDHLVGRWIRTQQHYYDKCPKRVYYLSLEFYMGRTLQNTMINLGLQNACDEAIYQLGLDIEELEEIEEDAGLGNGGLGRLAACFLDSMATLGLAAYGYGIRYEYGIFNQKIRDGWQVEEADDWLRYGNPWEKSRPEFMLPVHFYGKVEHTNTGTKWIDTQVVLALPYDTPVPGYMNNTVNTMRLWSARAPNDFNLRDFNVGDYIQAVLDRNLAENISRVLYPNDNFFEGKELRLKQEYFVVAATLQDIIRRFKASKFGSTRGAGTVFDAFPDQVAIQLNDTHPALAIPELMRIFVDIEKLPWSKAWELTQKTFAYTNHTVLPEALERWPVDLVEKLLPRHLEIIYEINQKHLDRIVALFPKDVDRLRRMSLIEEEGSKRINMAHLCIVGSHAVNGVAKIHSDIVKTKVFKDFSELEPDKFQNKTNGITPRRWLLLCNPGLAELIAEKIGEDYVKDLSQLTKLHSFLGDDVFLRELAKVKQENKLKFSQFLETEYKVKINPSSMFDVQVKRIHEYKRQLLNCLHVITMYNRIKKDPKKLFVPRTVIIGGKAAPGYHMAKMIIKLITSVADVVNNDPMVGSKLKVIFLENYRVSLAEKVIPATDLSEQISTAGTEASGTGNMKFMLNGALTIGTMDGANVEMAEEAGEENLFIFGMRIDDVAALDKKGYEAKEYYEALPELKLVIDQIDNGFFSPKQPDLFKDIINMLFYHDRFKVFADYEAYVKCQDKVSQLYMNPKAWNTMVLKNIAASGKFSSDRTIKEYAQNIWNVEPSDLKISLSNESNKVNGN
The assay can be described thus: Glycogen Phosphorylase Activity Assay. As to conditions: pH 6.8; 22 °C. As to the method:
The activity of recombinant human liver GPa in the forward direction was measured by monitoring the production of NADPH. Enzyme activity was assayed at pH 6.8 in phosphate buffer containing beta-NADP, alpha -glucose 1,6-bisphosphate, glucose-6-phophate dehydrogenase, phosphoglucomutase, glycogen, and glucose. […] The reaction was started by adding hLGPa solution (beta-glycerophosphate and cystein, pH 6.8). The reaction took place at room temperature, and the conversion of oxidized beta-NADP to reduced beta-NADPH was measured at 340 nm for 2 h. The hLGPa inhibition IC50 values were calculated using the logistic regression method and SAS software.
In general, IC50 refers to the concentration that gives 50% inhibition. Read a high IC50 as weaker potency in that assay. `O=C(Nc1ccc(C(O)CO)c(F)c1)c1cc2cc(Cl)ccc2[nH]1` (stereo not drawn) [5-chloroindolecarboxamide, 9g]: the midpoint of inhibition, the IC50, lay at 340 nM.
Next, `O=C(Nc1ccc(C(O)CO)cc1F)c1cc2cc(Cl)ccc2[nH]1` (stereo not drawn) [5-chloroindolecarboxamide, 9b]: 420 nM.
`O=C(Nc1ccc(C(O)CO)cc1Cl)c1cc2cc(Cl)ccc2[nH]1` (stereo not drawn) [5-chloroindolecarboxamide, 9c] showed an IC50 of 1100 nM.
